Measured values: PubChem BioAssay AID1996
In brackets after ≈: the same amount, converted by molar mass.

Details: buffer; pH 7.4; 200.0 µM

Row | SMILES | solubility kinetic [µg/mL]
1 | Cc1nn(C)c(C)c1CNC(=O)Nc1ccc2c(c1)OCO2 | > 45.3
2 | Cn1c(=NC(=O)c2cccc([N+](=O)[O-])c2)sc2ccccc21 | < 0.2
3 | C=CCN1C(=O)/C(=C2/Sc3ccccc3N2CC)SC1=S | < 0.4
4 | COc1cccc(OCC(O)CNC2CCCC2)c1.Cl (stereo not given) | > 45.3
5 | Cc1ccc(C)c(N(CC(=O)N2CCCC2)S(C)(=O)=O)c1 | 35.8 (≈ 115 µM)
6 | Cl.NOCC(=O)O | > 16.4
7 | O=C(O)c1cc(N2CCOCC2)nc2ccccc12 | 37.9 (≈ 147 µM)
8 | Cn1c(=O)c2ccccc2n2c(=S)[nH]nc12 | > 34.8
9 | Cc1cc(C)cc(NC(=O)c2ccc([N+](=O)[O-])o2)c1 | 8.3 (≈ 31.9 µM)
10 | O=[N+]([O-])/C=C1/CCCCCN1 | > 23.4
11 | CCN(CC)c1ccc(/C=N/O)cc1 | > 28.8
12 | Cc1ccc(NS(=O)(=O)c2ccc(NC(=O)C3CC3)cc2)cc1C | 6.9 (≈ 20 µM)
13 | O=C(NN=C1CCCCCCC1)c1ccc(F)cc1 | > 39.3
14 | O=C(c1ccc(Oc2ccc(Cl)cc2)c([N+](=O)[O-])c1)N1CCCC1 | 41.1 (≈ 119 µM)
15 | COc1ccc2cc(C(C)C(=O)NC3CCC(O)CC3)ccc2c1 (stereo not given) | 25.3 (≈ 77.3 µM)
16 | Cc1ccc(NC(=O)CC(=O)Nc2ccc(C)c(C)c2)cc1C | < 0.3
17 | CC(C)c1ccc(NC2=CC(=O)CC(C)(C)C2)cc1 | 2.6 (≈ 10.1 µM)
18 | O=c1[nH]c(=O)n(C2CCCCCC2)c(O)c1C=NCc1cccnc1 | 8.2 (≈ 23.9 µM)
19 | CCOc1ccc(NC(=O)C(CC(=O)O)Cc2ccc(Br)cc2)cc1 (stereo not given) | 50 (≈ 123 µM)
20 | O=S1(=O)CCN(OCc2ccc(F)cc2Cl)CC1 | 43.1 (≈ 147 µM)

Row | SMILES | solubility kinetic [µg/mL]
21 | CC12CCC(C/C1=N/O)C2(C)CBr (stereo not given) | > 36.9
22 | CCC(C)[C@H](NC(=O)NCc1ccco1)C(=O)OC (stereo not given in full) | > 40.2
23 | COc1ccc(Cl)cc1C(=O)NCCCN1CCOCC1 | > 46.9
24 | COc1ccc(C(=O)OCC(=O)NC2CC2)cc1F | 32.6 (≈ 122 µM)
25 | CN1c2ccccc2C(=O)NC1c1ccc(Cl)cc1 (stereo not given) | > 40.9
26 | Cc1csc(NC(=O)CCNC(=O)c2ccccc2Cl)n1 | 43.9 (≈ 136 µM)
27 | Nc1ccc(C(=O)[O-])cc1.[K+] | 24.1
28 | CCN(CC(=O)Nc1c(F)cccc1F)C(=O)C1CC1 | 40.7 (≈ 144 µM)
29 | Cc1ccc(C(=O)Nc2ccc(Nc3ccccc3)cc2)cc1Br | < 0.4
30 | COc1cccc(NC(=O)C2=COCCO2)c1 | > 35.3
31 | COc1cccc(Nc2nc(-c3cccnc3)cs2)c1 | 1.3 (≈ 4.59 µM)
32 | CCOc1ccc2nc(NC(=O)c3ccc(C)o3)sc2c1 | 0.6 (≈ 1.98 µM)
33 | Nc1nc(NCCOCCO)nc(N2CCCCCC2)c1[N+](=O)[O-] | 47.4 (≈ 139 µM)
34 | CCC(=O)Nc1ccc(NC(=O)c2cccc3ccccc23)cc1 | < 0.3
35 | COc1ccc(NC(C)=O)cc1S(=O)(=O)N1CC=C(c2ccccc2)CC1 | 2.6 (≈ 6.73 µM)
36 | CC(=O)Nc1ccc2nc(NC(=O)c3cccs3)sc2c1 | 3.6 (≈ 11.3 µM)
37 | CC(C)(C)NC(=O)COc1ccc(S(=O)(=O)N2CCCC2)cc1 | > 51.1
38 | COc1ccc2cc3cc(C(=O)NCCC(C)C)oc3nc2c1 | < 0.3
39 | CS/C(=C\C(=O)c1ccco1)Nc1ccccc1Cl | 10.4 (≈ 35.4 µM)
40 | N#Cc1ccc(OCC(=O)OCC(=O)c2ccc[nH]2)cc1 | > 42.6

Row | SMILES | solubility kinetic [µg/mL]
41 | Cc1nn(C)c(Cl)c1CN1CCN(CCC(C)C)C(CCO)C1 (stereo not given) | > 51.4
42 | O=[N+]([O-])c1cccc(C2(O)COc3ccccc3O2)c1 (stereo not given) | > 41
43 | O=C(Cc1ccc(Cl)cc1)NCC(=O)N1CCCCCC1 | > 46.3
44 | Cc1cc2nc(-c3ccc[nH]c3=O)[nH]c2cc1C | 3.3 (≈ 13.8 µM)
45 | Clc1cccc(Cl)c1C1Nc2cccc3cccc(c23)N1 | 3 (≈ 9.52 µM)
46 | Cc1ccc(S(=O)(=O)NCCc2c[nH]c3ccccc23)cc1 | 37.7 (≈ 120 µM)
47 | COc1ccc(C)cc1NC(=O)C1CC1c1ccccc1 (stereo not given) | 4.7 (≈ 16.7 µM)
48 | Cc1ccc(CNC(=O)c2cc(=O)c3ccc(C)cc3o2)cc1 | 2.6 (≈ 8.46 µM)
49 | Cc1cccnc1NC(=O)CNC(=O)COc1ccccc1 | > 44.9
50 | COC(=O)c1c(C)[nH]c(C(=O)OCC(=O)c2ccc(C)s2)c1C | 5.7 (≈ 17 µM)
51 | Cc1cnc(C(=O)OCC(=O)NC(=O)c2ccccc2)cn1 | > 44.9
52 | O=C(CNS(=O)(=O)c1ccc(Br)cc1)N1CCN(Cc2ccccc2)CC1 | 7.2 (≈ 15.9 µM)
53 | COc1ccc(C(=O)NC23CC4CC(CC(C4)C2)C3)cc1 | 1 (≈ 3.5 µM)
54 | Cc1ccc(C)c(S(=O)(=O)Nc2cc(C)on2)c1 | > 39.9
55 | Cc1ccc(/C=C/C(=O)OCC(=O)NCCc2ccc(S(N)(=O)=O)cc2)o1 | > 58.9
56 | CCOc1ccc(NC(=O)COC(=O)CN2CCCCCC2=O)cc1 | > 52.3
57 | COc1ccc(-n2c(=S)[nH]c3ccccc3c2=S)cc1 | 1.4 (≈ 4.66 µM)
58 | CCCCCCCOc1ccc(C2CC(=O)N(C)C2=O)cc1 (stereo not given) | 3.1 (≈ 10.2 µM)
59 | COc1cccc(NC(=O)Nc2ccc3c(c2)CCC3)c1 | 0.3 (≈ 1.06 µM)
60 | O=C(CN1CCCC1)Nc1cc(F)ccc1F | 35.1 (≈ 146 µM)
